In US20250066794A1, “Application of PRDX5 and GPX4 Genes in Preparation of Drugs for Castration-resistant Prostate Cancer” (Jiangnan University, priority 2023, published 2025):

Tests used:
PRDX5 enzyme activity = PRDX5 enzyme activity in prostate tissue of CRPC mice (thioredoxin system); type: in vivo, mouse; settings: administration for 30 days, ENZ 10 mg/Kg gavage, siRNA 100 nM tail vein injection
Method: (§1) A C-MYC (Hi-Myc)-overexpressing and spontaneous prostate cancer mouse model was constructed. mPIN/Cancer transition was developed in mice at the age of 4 months, at which time the mice were randomly grouped into NC control group (gavaged with solvent) and ENZ administration group. The ENZ administration group was given 10 mg/Kg ENZ by gavage every three days for a total of 30 days, and then some of the mice were sacrificed by cervical dislocation and their prostates were taken for photographing and weighing. […] Afterwards, the rest of the mice continued to be administrated according to the above method for 60 days. A recurrence was found in the ENZ group, and the CRPC mice were successfully obtained. […]
Assay for PRDX5 enzyme activity: the PRDX5 enzyme activity was determined using the thioredoxin system. Specifically, the rate of H2O2 degradation was measured by detecting the reduction of A340 caused by NADPH oxidation. […]

MyC-CaP-DTP cells = test: CCK8 cell survival, MyC-CaP-DTP cells; type: cell-based, mouse
Method: (§2) Further, drug-resistant LNCaP-DTP and MyC-CaP-DTP cells as well as 22Rv1 cells which are themselves ENZ-resistant were transfected with the modified #3-siPRDX5-1-16 or #3-siGPX4-1-16 or #3-siPRDX5-1-16+#3-siGPX4-1-16 synthesized in Example 3 through a CCK8 method, illustrating the in vitro antitumor effects of nucleic acid drugs in drug-resistant cells.
(§3) The drug-resistant LNCaP-DTP and MyC-CaP-DTP cells as well as 22Rv1 cells which are themselves ENZ-resistant were seeded in a 96-well plate containing fresh 1640 medium and attached. Subsequently, 1 to 16 siPRDX5, siGPX4, siPRDX5+siGPX4, and negative control si-neg were added, and the transfection mixture was sucked out after successful interference. The medium was replaced with a normal complete medium (1640 medium containing 10% fetal bovine serum and 1% double antibody) and continued to be cultured in the incubator for 24 h. Finally, a CCK8 assay was performed for determination and the cell survival was calculated by OD450 value.

[1] = test system: C-MYC (Hi-Myc)-overexpressing and spontaneous prostate cancer mouse model; test: C-MYC (Hi-Myc)-overexpressing spontaneous prostate cancer mouse model, ENZ gavage before resistance; type: in vivo
Method: as §1, with “obtained. Afterwards, the mice (i.e., mice at the age of 7 months) were randomly grouped into NC control group (continuously gavaged with solvent), ENZ single drug group, nucleic acid drug siPRDX5-1 group, ENZ and siPRDX5-1 co-administration group, nucleic acid drug siPRDX5-16 group, ENZ and siPRDX5-16 co-administration group, nucleic acid drug siGPX4-1 group, ENZ and siGPX4-1 co-administration group, nucleic acid drug siGPX4-16 group, ENZ and siGPX4-16 co-administration group, nucleic acid drugs siPRDX5-16+siGPX4-16 group, and ENZ and siPRDX5-16+siGPX4-16 co-administration group. The corresponding administrations were performed.” for “obtained.”

CRPC mice = test: Drug-resistant CRPC formed by continuous ENZ in C-MYC-overexpressing prostate cancer mice: prostate weight, HE staining; type: in vivo, mouse; settings: CRPC mice after drug resistance and recurrence; every three days for 30 days; ENZ 10 mg/Kg gavage, siRNA 100 nM tail vein injection
Method: as §1, with “obtained. Afterwards, the mice (i.e., mice at the age of 7 months) were randomly grouped into NC control group (continuously gavaged with solvent), ENZ single drug group, nucleic acid drug siPRDX5-1 group, ENZ and siPRDX5-1 co-administration group, nucleic acid drug siPRDX5-16 group, ENZ and siPRDX5-16 co-administration group, nucleic acid drug siGPX4-1 group, ENZ and siGPX4-1 co-administration group, nucleic acid drug siGPX4-16 group, ENZ and siGPX4-16 co-administration group, nucleic acid drugs siPRDX5-16+siGPX4-16 group, and ENZ and siPRDX5-16+siGPX4-16 co-administration group. The corresponding administrations were performed.” for “obtained.”

LNCaP-DTP cells = test: CCK8 cell survival, LNCaP-DTP cells; type: cell-based, human
Method: as §2, §3

GPX4 gene = test: qRT-PCR relative expression of GPX4 gene after siGPX4 transfection, LNCaP and LNCaP-DTP cells; type: cell-based, human; settings: for mRNA expression level of GPX4: LNCaP and drug-resistant LNCaP-DTP cells together; for Relative expression level of GPX4 gene: qRT-PCR; for interference activity on GPX4 gene expression (in words): drug-resistant or non-drug-resistant LNCaP cells and MyC-CaP cells
Method: (§4) To screen for suitable siRNAs, the interference activity of the siRNAs designed in Example 1 was determined. • S1. LNCaP and MyC-CaP cells were seeded at 1×10^6 in a 10 cm cell culture dish. On the second day, the cells were attached and then treated with 50 μM enzalutamide (ENZ) for 9 days, during which the medium was replaced with a fresh drug-containing medium (1640 medium containing 50 µM ENZ) for culture every three days. The cells were collected. After the treatment for 9 days, the cells were drug-resistant (DTP cells) and were labeled as LNCaP-DTP cells and MyC-CaP-DTP cells, respectively. • S2. LNCaP, MyC-CaP, and LNCaP-DTP and MyC-CaP-DTP cells as collected in S1, were seeded in a 6 cm dish and a 10 cm dish that contain fresh complete medium (1640 medium containing 10% fetal bovine serum and 1% […]), attached, and then transfected with siPRDX5 and siGPX4 designed in Example 1, and then mRNA and protein were extracted. • S3. RNA level and protein level were determined by qRT-PCR and Western Blot assays, and siRNAs with interference activity were screened and obtained.
(§5) The results are shown in FIG. 2 and FIG. 3 as well as Tables 1 and 2. Using the same method as in Example 2, LNCaP and MyC-CaP cells as well as their derived LNCaP-DTP and MyC-CaP-DTP cells were treated with the above modified siRNAs. […] It is also found to be more efficient in interfering with human cells compared to mice.

PRDX5 gene = test: qRT-PCR relative expression of PRDX5 gene after siPRDX5 transfection, LNCaP and LNCaP-DTP cells; type: cell-based, human; settings: for mRNA expression level of PRDX5: LNCaP and drug-resistant LNCaP-DTP cells together; for Relative expression level of PRDX5 gene: qRT-PCR
Method: as §4, §5

GPX4 = test: Western Blot / qRT-PCR expression of GPX4 after unmodified siGPX4; type: cell-based; settings: unmodified siRNA; LNCaP and MyC-CaP cells (FIG. 1, FIG. 4)
Method: as §4

PRDX5 = test: Western Blot / qRT-PCR expression of PRDX5 after unmodified siPRDX5; type: cell-based; settings: unmodified siRNA; LNCaP and MyC-CaP cells (FIG. 1, FIG. 4)
Method: as §4

## CNC(=O)c1ccc(N2C(=S)N(c3ccc(C#N)c(C(F)(F)F)c3)C(=O)C2(C)C)cc1F [ENZ, Enzalutamide]
PRDX5 enzyme activity
  PRDX5 enzyme activity relative to NC group: 4.56
MyC-CaP-DTP cells
  growth inhibition (in words): no longer has a significant inhibitory effect
[1]; administration continued for 60 further days
  recurrence on continued administration: recurrence
[1]; mice aged 4 months, 10 mg/Kg ENZ by gavage every three days for 30 days
  prostate weight compared to that of the NC control group: reduced by half
CRPC mice
  Mean mouse prostate weight: 66.67 mg
LNCaP-DTP cells
  growth inhibition (in words): no longer has a significant inhibitory effect

## #1-siGPX4: unmodified double-stranded siRNA against GPX4, SEQ ID NO. 11 and SEQ ID NO. 12 (chain 1 GUGAGGCAAGACCGAAGUAAACUAC; chain 2 GUAGUUUACUUCGGUCUUGCCUCACUG; unmodified RNA)
GPX4 gene
  mRNA expression level of GPX4: around 0.73
GPX4 gene; LNCaP cells
  Relative expression level of GPX4 gene: 0.700
GPX4 gene; LNCaP-DTP cells
  Relative expression level of GPX4 gene: 0.735

## #1-siPRDX5: unmodified double-stranded siRNA against PRDX5, SEQ ID NO. 7 and SEQ ID NO. 8 (chain 1 AGACAGACUUAUUACUAGAUGAUUC; chain 2 GAAUCAUCUAGUAAUAAGUCUGUCUCC; chain 1: all phosphodiester, sugars by position and methylation of C not given here; chain 2: unmodified RNA)
PRDX5 gene
  mRNA expression level of PRDX5: around 0.60
PRDX5 gene; LNCaP cells
  Relative expression level of PRDX5 gene: 0.605
PRDX5 gene; LNCaP-DTP cells
  Relative expression level of PRDX5 gene: 0.621

## #2-siGPX4: unmodified double-stranded siRNA against GPX4, SEQ ID NO. 13 and SEQ ID NO. 14 (chain 1 CUACAACGUCAAAUUCGAUAUGUUC; chain 2 GAACAUAUCGAAUUUGACGUUGUAGCC; chain 1: all phosphodiester, sugars by position not given here; chain 2: RNA, phosphodiester; further chemistry not fully specified)
GPX4 gene
  mRNA expression level of GPX4: around 0.73
GPX4 gene; LNCaP cells
  Relative expression level of GPX4 gene: 0.730
GPX4 gene; LNCaP-DTP cells
  Relative expression level of GPX4 gene: 0.755

## #2-siPRDX5: unmodified double-stranded siRNA against PRDX5, SEQ ID NO. 9 and SEQ ID NO. 10 (chain 1 GGCCAGAUUUCUGCAAUAAACACUU; chain 2 AAGUGUUUAUUGCAGAAAUCUGGCCAA; chain 1: all phosphodiester, sugars by position and methylation of C not given here; chain 2: unmodified RNA)
PRDX5 gene
  mRNA expression level of PRDX5: around 0.60
PRDX5 gene; LNCaP cells
  Relative expression level of PRDX5 gene: 0.580
PRDX5 gene; LNCaP-DTP cells
  Relative expression level of PRDX5 gene: 0.629

## #3-siGPX4: unmodified double-stranded siRNA against GPX4, SEQ ID NO. 3 and SEQ ID NO. 4 (chain 1 ACAACGUCAAAUUCGAUAUGU; chain 2 ACAUAUCGAAUUUGACGUUGUAC; unmodified RNA)
GPX4 gene
  mRNA expression level of GPX4: around 0.21
  interference activity on GPX4 gene expression (in words): superior interference activity than the #4-siGPX4
GPX4 gene; LNCaP cells
  Relative expression level of GPX4 gene: 0.180
GPX4 gene; LNCaP-DTP cells
  Relative expression level of GPX4 gene: 0.245
GPX4
  expression of GPX4, including mRNA level and protein level: substantially reducing the expression of GPX4

## #3-siPRDX5: unmodified double-stranded siRNA against PRDX5, SEQ ID NO. 1 and SEQ ID NO. 2 (chain 1 CAGACUUAUUACUAGAUGAUU; chain 2 AAUCAUCUAGUAAUAAGUCUGUC; unmodified RNA)
PRDX5
  expression of PRDX5, including mRNA level and protein level: substantially reducing the expression of PRDX5
PRDX5 gene
  mRNA expression level of PRDX5: around 0.16
PRDX5 gene; LNCaP cells
  Relative expression level of PRDX5 gene: 0.125
PRDX5 gene; LNCaP-DTP cells
  Relative expression level of PRDX5 gene: 0.197
PRDX5 gene; drug-resistant or non-drug-resistant LNCaP cells and MyC-CaP cells
  interference activity on PRDX5 gene expression (in words): superior

## #4-siGPX4: unmodified double-stranded siRNA against GPX4, SEQ ID NO. 5 and SEQ ID NO. 6 (chain 1 GUGAGGCAAGACCGAAGUAAA; chain 2 UUUACUUCGGUCUUGCCUCACUG; unmodified RNA)
GPX4 gene
  mRNA expression level of GPX4: around 0.24
  interference activity on GPX4 gene expression (in words): superior
GPX4 gene; LNCaP cells
  Relative expression level of GPX4 gene: 0.220
GPX4 gene; LNCaP-DTP cells
  Relative expression level of GPX4 gene: 0.265
GPX4
  expression of GPX4, including mRNA level and protein level: substantially reducing the expression of GPX4
